Assay results reported in US20160185745A1, “ANALOGS OF VINAXANTHONE AND XANTHOFULVIN, METHODS OF SYNTHESIS, AND METHODS OF TREATMENTS THEREOF” (BOARD OF REGENTS, THE UNIVERSITY OF TEXAS SYSTEM, priority 2013, published 2016).

Assays:
[1] = at concentrations >1000 times the effective dose; cited from earlier work
semaphorin 3A (Sema3A) = molecular target: T1, semaphorin 3A (Sema3A) (Homo sapiens, UniProt Q14563); settings: read-out: Sema3A inhibitory activity IC50 (converted); cited from earlier work
T1 sequence (Q14563 21-771): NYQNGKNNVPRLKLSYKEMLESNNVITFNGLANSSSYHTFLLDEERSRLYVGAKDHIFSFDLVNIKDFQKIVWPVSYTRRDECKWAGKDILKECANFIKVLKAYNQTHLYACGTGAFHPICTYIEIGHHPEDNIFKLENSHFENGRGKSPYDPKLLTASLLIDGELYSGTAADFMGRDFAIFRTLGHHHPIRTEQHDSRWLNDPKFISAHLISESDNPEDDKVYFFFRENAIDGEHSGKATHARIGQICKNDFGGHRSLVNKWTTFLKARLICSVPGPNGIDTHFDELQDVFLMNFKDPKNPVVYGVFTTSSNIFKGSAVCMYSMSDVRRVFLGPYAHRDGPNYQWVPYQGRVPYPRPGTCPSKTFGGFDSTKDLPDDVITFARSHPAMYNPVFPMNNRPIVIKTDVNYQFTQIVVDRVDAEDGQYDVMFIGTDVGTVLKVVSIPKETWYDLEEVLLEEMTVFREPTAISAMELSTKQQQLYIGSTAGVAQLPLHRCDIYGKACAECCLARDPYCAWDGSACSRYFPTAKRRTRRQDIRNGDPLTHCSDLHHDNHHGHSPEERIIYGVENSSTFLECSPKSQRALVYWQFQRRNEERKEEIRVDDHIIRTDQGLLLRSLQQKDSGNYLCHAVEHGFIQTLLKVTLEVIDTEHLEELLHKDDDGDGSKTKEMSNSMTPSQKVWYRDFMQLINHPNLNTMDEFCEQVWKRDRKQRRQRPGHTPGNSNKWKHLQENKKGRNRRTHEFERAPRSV

SUCNR1 = molecular target: T2, SUCNR1 (Homo sapiens, UniProt Q9BXA5); experiment: modulation of SUCNR1 when administered with sodium succinate; assay type: cell-based; settings: compared to sodium succinate alone
T2 sequence (Q9BXA5 1-334): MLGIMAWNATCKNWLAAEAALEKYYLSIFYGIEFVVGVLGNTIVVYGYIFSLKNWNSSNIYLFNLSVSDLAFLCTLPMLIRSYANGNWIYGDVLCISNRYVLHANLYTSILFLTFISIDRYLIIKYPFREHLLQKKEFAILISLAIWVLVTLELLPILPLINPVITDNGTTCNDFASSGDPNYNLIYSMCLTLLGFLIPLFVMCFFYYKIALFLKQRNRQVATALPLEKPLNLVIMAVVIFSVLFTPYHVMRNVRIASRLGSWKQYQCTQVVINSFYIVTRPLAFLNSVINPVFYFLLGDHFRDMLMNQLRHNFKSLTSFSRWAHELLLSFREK
Procedure: The values are compared to 100% activation by sodium succinate.
(§1) Control: 0.2% DMSO in M9 buffer. […] Additionally, several analogs were prepared and their biological activity was measured.

[2] = system: GFP-labeled cholinergic neurons; experiment: outgrowth of GFP-labeled cholinergic neurons in vivo in C. elegans; settings: for outgrowth activity of GFP-labeled cholinergic neurons: control 0.2% DMSO in M9 buffer, compared with dibutyryl cAMP
Procedure: as §1

| Dose ratio (SUCNR1) | efficacy value (SUCNR1) [%] | SMILES | cytotoxicity effects [1] | IC50 (semaphorin 3A (Sema3A)) [nM] | outgrowth activity of GFP-labeled cholinergic neurons [2] | promotes branching in % of animals ([2]; at 2 mM) [%] |
| --- | --- | --- | --- | --- | --- | --- |
| 0.33 | 230 | CC(=O)c1cc2c(=O)c3c(C(=O)O)c(O)c(O)cc3oc2c(C(C)=O)c1-c1coc2cc(O)c(O)c(C(=O)O)c2c1=O [vinaxanthone, 5,7-diacetyl-6-(5-carboxy-6,7-dihydroxy-4-oxo-4H-chromen-3-yl)-2,3-dihydroxy-9-oxo-9H-xanthene-1-carboxylic acid] | no observable cytotoxicity effects | 173 | comparable to dibutyryl cAMP | – |
| – | – | CCCC(=O)Nc1ncnc2c1ncn2[C@@H]1O[C@@H]2COP(=O)(O)O[C@H]2[C@H]1OC(=O)CCC [dibutyryl cAMP, reference compound] | – | – | – | 36 |
| 0.32 | 222 | CC(=O)c1c(C)c(/C(O)=C2\COc3cc(O)c(O)c(C(=O)O)c3C2=O)cc2c(=O)c3c(C(=O)O)c(O)c(O)cc3oc12 [xanthofulvin] | – | – | comparable to dibutyryl cAMP | – |
